Laboratory results: PMC3973950, “Synthesis of 5-arylidine amino-1,3,4-thiadiazol-2-[(N-substituted benzyol)]sulphonamides endowed with potent antioxidants and anticancer activity induces growth inhibition in HEK293, BT474 and NCI-H226 cells” (Medicinal Chemistry Research, 2013)

Assays:
[1] = In vitro cytotoxicity by MTT assay, NCI-H226; format: cell-based; conditions: human, NCI-H226 lung cancer cells, 0.015 μM, read-out: % Cytotoxicity (100 − % cell survival) of NCI-H226 cell line
Procedure, shortened: (§1)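 First, trypsinized cells went into wells at roughly 10,000 per well for 24 h. Next, medium was replaced with test compounds for 72 h at 37 °C. Finally, MTT was added for 4 h and the propanol-solubilized formazan read at 490 nm.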

[2] = tested on: NCI-H226 (lung cancer cell line); assay: In vitro cytotoxicity by MTT assay, NCI-H226; format: cell-based; conditions: Homo sapiens, 72 h, read-out: % Cytotoxicity (100 − % cell survival) of NCI-H226 cell line; for cytotoxicity at 0.005 µM: NCI-H226, 0.005 μM; for cytotoxicity at 0.045 µM: NCI-H226, 0.045 μM; for cytotoxicity at 0.13 µM: NCI-H226, 0.13 μM; for cytotoxicity at 0.41 µM: NCI-H226, 0.41 μM; for cytotoxicity at 1.23 µM: NCI-H226, 1.23 μM; for cytotoxicity at 3.7 µM: NCI-H226, 3.7 μM; for cytotoxicity at 11.11 µM: NCI-H226, 11.11 μM; for cytotoxicity at 33.33 µM: NCI-H226, 33.33 μM; for cytotoxicity at 100 µM: NCI-H226, 100 μM
Procedure, shortened: as §1

[3] = Superoxide anion radical scavenging (NBT/NADH/PMS); format: biochemical; conditions: Conc. ± SD; standard catechin; read-out: IC50 inhibitory concentration, Superoxide anion
Experimental: Measurement of superoxide anion scavenging activity of the synthesized compound was taken based on the method described by Nishimiki et al. ([1972]) and slightly modified. […] The reaction mixture was incubated at 25 °C for 5 min, and the absorbance at 560 nm was measured against blank samples. Catechin was used as reference compound. All the experiments were performed in triplicate, and the results were averaged. The percentage of inhibition was determined by comparing the results of control and test samples. The IC50 (nM/mL) value are depicted in Table 1.

[4] = tested on: root meristem cells of Allium cepa; assay: In vitro antimitotic activity and cytogenetic analysis, Allium cepa meristem root model; format: cell-based; conditions: compounds 1 mg/mL, PC (EMS) 2 × 10^−2 M; for MI (%) ± SEM (mitotic index): lower MI = higher activity, negative control 6.22
Experimental: Small bulbs (1.5–2.0 cm in diameter) of the common onion, A. cepa (2n = 16), were purchased from vendor at a local market. Prior to initiating the test, the outer scales of the bulbs and the dry bottom plate were removed without destroying the root primordia. The roots of A. cepa were grown in distilled water in Erlenmeyer flasks (200 mL capacity) under laboratory conditions (dark 24 °C). For each synthesized compound sample, after reaching a length of 3 cm (±0.5 cm), a series of six bulbs were placed in distilled water (pH 7.3) for 48 h and then onion roots were treated with the synthesized compound at 1 mg/mL concentrations of each tested compound. The test tubes were kept in an incubator at 22 ± 1 °C, and the test samples were changed daily at the same time. Several of the newly formed root tips were then cut from each bulb and examined for any visible morphological abnormalities. The bulbs with satisfactory root lengths (2–2.5 cm) were used in the study, while those with exceptionally long or short roots were discarded (on average 2–3 bulbs). Therefore, individual sets of five bulbs were used for each extract sample.
Distilled water (pH 7.3) was used as a negative control, and EMS (2 × 10^−2 M) used as a positive control mutagen (Fiskesjo, [1993], [1997]). After 24 h of exposure, several root tips were removed from the bulbs, fixed in 3:1 (v/v) ethanol (90 %)/glacial acetic acid (45 %) and stored overnight at 4 °C. The next day, they were placed in 70 % (v/v) aqueous alcohol and refrigerated until used. Allium roots were softened by digesting with HCl and rinsed the roots in water. After removing the water from the third rinse, the roots were covered with the orcein acetate stain. The roots were incubated in the stain for 12 min. During this time, the very tip of the root begins to turn red as the DNA stains the numerous small actively dividing cells at the tip. A root was transferred to the centre of a clean microscope slide, and a drop of water was added. Using a razor blade most of the unstained part of the root was cut off and discarded. The root tip was covered with a cover slip and then carefully pushed down on the cover slide with the wooden end of a dissecting probe. […] The root tip should spread out to a diameter about 0.5–1 cm. Five slides were prepared per bulb.
The following parameters were used for the determination of cytotoxicity and genotoxicity: • (i) the mitotic index (MI) was calculated as the ratio between the number of mitotic cells and the total number of cells scored and expressed as percentage using following formula as per standard procedures. Mitoticindex=Numberofdividingcells/Totalnumberofcells×100 • (ii) Chromatin aberrations (stickiness, breaks and polar deviation) were used as end points for the determination of cytogenetic effects, and micronuclei (MNC) were scored in interphase cells per 1,000 cells (‰ MNC) (Freshney, [2000]). • (iii) The most frequent abnormalities are shown in microphotographs. After 72 h of exposure to the test samples, the root lengths were measured and used as an index of general toxicity. The results for mitotic index and root length are expressed as percentage of the negative and positive controls. Visible morphological modifications, such as changes in root consistency and colour as well as the presence of swelling (c-tumours), hooks or twists in the roots, were also observed.

Compound | IC50 [3] [µM] | Aberrant cells (%) ± SEM [4] [%] | Chromosome breaks (%) ± SEM [4] [%] | Polar deviations (%) ± SEM [4] [%] | Stickiness (%) ± SEM [4] [%] | cytotoxicity at 72 h, 0.015 µM [1] [%] | cytotoxicity at 0.005 µM [2] [%] | cytotoxicity at 0.045 µM [2] [%] | cytotoxicity at 0.13 µM [2] [%] | cytotoxicity at 0.41 µM [2] [%] | cytotoxicity at 1.23 µM [2] [%] | cytotoxicity at 3.7 µM [2] [%] | cytotoxicity at 11.11 µM [2] [%] | cytotoxicity at 33.33 µM [2] [%] | cytotoxicity at 100 µM [2] [%] | MNC (‰) ± SEM (micronuclei per 1,000 cells) [4] | MI (%) ± SEM (mitotic index) [4] [%]
O=C(NS(=O)(=O)c1nnc(N=Cc2ccc(O)cc2)s1)c1ccccc1 [Compound 9e, N-({5-[(4-Hydroxybenzylidene)amino]-1,3,4-thiadiazol-2-yl}sulfonyl)benzamide] | 136 ± 22.5 | 26.74 ± 6.56 | 2.72 ± 0.94 | 8.41 ± 1.35 | 9.88 ± 1.46 | 40.3 | 39.1 | 41.9 | 42.5 | 43.4 | 45.8 | 47.6 | 48.2 | 49.3 | 51.4 | 0.21 ± 0.06 ‰ | 1.27 ± 0.11
O=C(NS(=O)(=O)c1nnc(N=Cc2ccc(Cl)cc2)s1)c1ccccc1 [Compound 9b, N-({5-[(4-Chlorobenzylidene)amino]-1,3,4-thiadiazol-2-yl}sulfonyl)benzamide] | 76.3 ± 11.8 | 24.64 ± 7.01 | 3.36 ± 0.57 | 7.32 ± 1.24 | 9.12 ± 1.33 | 29.5 | 27.8 | 35.4 | 35.7 | 36.1 | 36.5 | 36.6 | 37 | 37.7 | 38 | 0.42 ± 0.18 ‰ | 2.77 ± 0.19
COc1ccccc1C=Nc1nnc(S(=O)(=O)NC(=O)c2ccccc2)s1 [Compound 9c, N-({5-[(2-Methoxybenzylidene)amino]-1,3,4-thiadiazol-2-yl}sulfonyl)benzamide] | 128 ± 21.7 | 38.54 ± 8.18 | – | 7.22 ± 2.61 | 28.04 ± 6.34 | 33.2 | 31.5 | 34.1 | 35.1 | 35.9 | 36.1 | 37.7 | 38.2 | 40.3 | 43.5 | 0.36 ± 0.14 ‰ | 0.53 ± 0.03

The next lines start with results.

IC50 [3] [µM] | Aberrant cells (%) ± SEM [4] [%] | Chromosome breaks (%) ± SEM [4] [%] | Polar deviations (%) ± SEM [4] [%] | Stickiness (%) ± SEM [4] [%] | Compound | cytotoxicity at 72 h, 0.015 µM [1] [%] | cytotoxicity at 0.005 µM [2] [%] | cytotoxicity at 0.045 µM [2] [%] | cytotoxicity at 0.13 µM [2] [%] | cytotoxicity at 0.41 µM [2] [%] | cytotoxicity at 1.23 µM [2] [%] | cytotoxicity at 3.7 µM [2] [%] | cytotoxicity at 11.11 µM [2] [%] | cytotoxicity at 33.33 µM [2] [%] | cytotoxicity at 100 µM [2] [%] | MNC (‰) ± SEM (micronuclei per 1,000 cells) [4] | MI (%) ± SEM (mitotic index) [4] [%]
– | 29.83 ± 5.03 | 2.43 ± 0.67 | 8.91 ± 1.56 | 16.50 ± 3.23 | CN(C)c1ccc(C=Nc2nnc(S(=O)(=O)NC(=O)c3ccccc3)s2)cc1 [Compound 9h, N-[(5-{[4-(Dimethylamino)benzylidene]amino}-1,3,4-thiadiazol-2-yl)sulfonyl]benzamide] | 35 | 32.9 | 35.4 | 36.3 | 36.4 | 37.2 | 37.5 | 37.9 | 39.2 | 40 | 0.31 ± 0.14 ‰ | 1.07 ± 0.13
– | 40.48 ± 12.94 | – | 10.26 ± 2.13 | 32.24 ± 6.92 | COc1cc(C=Nc2nnc(S(=O)(=O)NC(=O)c3ccccc3)s2)ccc1O [Compound 9g, N-({5-[(4-Hydroxy-3-methoxybenzylidene)amino]-1,3,4-thiadiazol-2-yl}sulfonyl)benzamide] | 33.2 | 32.7 | 34.1 | 35.1 | 36.3 | 37.5 | 38.6 | 39.2 | 39.8 | 42.5 | 0.48 ± 0.32 ‰ | 0.41 ± 0.04
